Data taken from patent US10793557B2, “Sting agonist compounds” (Merck Sharp & Dohme Corp., priority 2018, dated 2020).

How the values were obtained:
full-length HAQ STING = target: T1, full-length HAQ STING (Homo sapiens, UniProt Q86WV6, G230A/H232R/R293Q/R71H); assay: 3H-cGAMP filtration binding assay (HAQ STING); conditions: competition with tritiated cGAMP, HAQ STING membrane
T1 construct: AviTag (after GG linker) (C); HRV3C cleavage site (after GS linker) (C); HIS8 (C); made in house; host or cells: Trichoplusia ni (Hi-Five) insect cells infected with baculovirus (virus generated and amplified in Sf21 cells); used as a washed membrane preparation
Method in brief: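 Hi-Five (T. ni) membranes overexpressing the STING variant (2.2 ug/ml working) preincubated with compound 60 min at RT in PBS, then [3H]cGAMP (8 nM working stock) added for 60 min at RT. Bound radioactivity captured on GF/B filters and counted by scintillation; EC50 from 4-parameter fit of control-normalized activity.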

full-length WT STING = target: T2, full-length WT STING (Homo sapiens, UniProt Q86WV6, H232R); assay: 3H-cGAMP filtration binding assay (WT STING); conditions: competition with tritiated cGAMP, WT STING membrane
T2 construct: AviTag (after gg linker) (C); HRV3C cleavage site (after gs linker) (C); HIS8 (C); made in house; host or cells: Trichoplusia ni (Hi-Five) insect cells infected with baculovirus (virus generated and amplified in Sf21 cells); used as a washed membrane preparation
Method in brief: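 EC50 values come from 4-parameter fits of remaining filter-bound tritium versus log concentration (10-point, 1:3 dilution). Insect-cell membranes carrying full-length WT STING were incubated 60 min at RT with compound and tritiated cGAMP (16 nM working stock) before filtration.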

[1] = tested on: secretion of interferon-beta from THP1 cells; assay: IFN-β secretion in THP1 cell culture (5 h); assay type: cell-based; conditions: Homo sapiens, THP-1, 5 h, 30 uM cGAMP = 100%; for activation at 30 µM: compound at 30 μM, read-out: % Effect at 30 μM relative to 2′3′-cGAMP; for activation at 3 µM: compound at 3 uM, read-out: % Effect relative to 2′3′-cGAMP (@ 3 uM)
Method in brief: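 IFN-β in supernatant measured by AlphaLISA after a 5 h, 37 °C incubation of THP1 cells with compound (10 concentrations, 30000 down to 1.5 nM, 0.3% DMSO) in low-serum RPMI. Values scaled between DMSO and 30 uM cGAMP controls; 4-parameter curve fit yields EC50.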

T1 sequence (Q86WV6 with tags, fused parts or gaps R71H/G230A/H232R/R293Q): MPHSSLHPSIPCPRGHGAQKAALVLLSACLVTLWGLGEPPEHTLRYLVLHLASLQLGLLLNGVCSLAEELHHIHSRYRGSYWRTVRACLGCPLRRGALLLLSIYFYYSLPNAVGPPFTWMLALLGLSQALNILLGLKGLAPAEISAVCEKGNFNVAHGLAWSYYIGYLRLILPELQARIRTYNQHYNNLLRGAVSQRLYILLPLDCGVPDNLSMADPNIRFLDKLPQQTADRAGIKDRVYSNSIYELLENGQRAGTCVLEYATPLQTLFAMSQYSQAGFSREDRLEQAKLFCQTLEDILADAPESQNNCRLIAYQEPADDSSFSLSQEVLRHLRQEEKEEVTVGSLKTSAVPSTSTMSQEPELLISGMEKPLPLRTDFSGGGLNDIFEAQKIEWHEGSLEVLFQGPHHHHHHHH
T2 sequence (Q86WV6 with tags, fused parts or gaps H232R): as the sequence (Q86WV6 with tags, fused parts or gaps R71H/G230A/H232R/R293Q) above, with H71R, A230G, Q293R counted along it

SMILES	EC50 (full-length HAQ STING) [nM]	EC50 (full-length WT STING) [nM]	activation at 30 µM [1] [%]	activation at 3 µM [1] [%]
COc1cc2sc(C(=O)CCC(=O)O)cc2cc1CCCOc1cc2sc(C(=O)CCC(=O)O)cc2cc1OC [Example 128, 4-(5-(3-((2-(3-carboxypropanoyl)-5-methoxybenzo[b]thiophen-6-yl)oxy)propyl)-6-methoxybenzo[b]thiophen-2-yl)-4-oxobutanoic acid]	1080	6310	83	–
COc1cc2sc(C(=O)CCC(N)=O)cc2cc1CCCc1cc2cc(C(=O)CCC(=O)O)sc2cc1OC [Example 30, 4-(5-(3-(2-(4-amino-4-oxobutanoyl)-6-methoxybenzo[b]thiophen-5-yl)propyl)-6-methoxybenzo [b]thiophen-2-yl)-4-oxobutanoic acid]	1000	7520	103	–
COc1cc2sc(C(=O)C[C@H](C)C(=O)O)cc2c(F)c1OCCCCCOc1c(OC)cc2sc(C(=O)C[C@H](C)C(=O)O)cc2c1F [Example 120, (2S,2′S)-4,4′-(5,5′-(pentane-1,5-diylbis(oxy))bis(4-fluoro-6-methoxybenzo[b]thiophene-5,2-diyl))bis(2-methyl-4-oxobutanoic acid)]	38	698	–	45
COc1cc2sc(C(=O)CCC(=O)O)cc2nc1OCCOc1c(OC)cc2sc(C(=O)C[C@H](C)C(=O)O)cc2c1F [Example 83, (S)-4-(5-(2-((2-(3-carboxypropanoyl)-6-methoxythieno[3,2-b]pyridin-5-yl)oxy)ethoxy)-4-fluoro-6-methoxybenzo[b]thiophen-2-yl)-2-methyl-4-oxobutanoic acid]	2	9	107	–
COc1cc2sc(C(=O)C[C@H](C)C(=O)O)cc2c(Cl)c1OCCCOc1cc2cc(C(=O)C[C@H](C)C(=O)O)sc2cc1O [Example 182, (S)-4-(5-(3-((2-((S)-3-carboxybutanoyl)-4-chloro-6-methoxybenzo[b]thiophen-5-yl)oxy)propoxy)-6-hydroxybenzo[b]thiophen-2-yl)-2-methyl-4-oxobutanoic acid]	1	2	–	147
COc1cc2sc(C(=O)CCC(=O)O)cc2c(F)c1OCCCCCOc1c(OC)cc2sc(C(=O)C[C@H](C)C(=O)O)cc2c1F [Example 118]	60	5000	117	–
COc1cc2sc(C(=O)C[C@H](C)C(=O)O)cc2cc1OCCCOc1c(OC)cc2sc(C(=O)C[C@H](C)C(=O)NS(=O)(=O)N(C)C)cc2c1F [Example 178, (S)-4-(5-(3-((2-((S)-4-((N,N-Dimethylsulfamoyl)amino)-3-methyl-4-oxobutanoyl)-4-fluoro-6-methoxybenzo[b]thiophen-5-yl)oxy)propoxy)-6-methoxybenzo[b]thiophen-2-yl)-2-methyl-4-oxobutanoic acid]	4	31	107	–
COc1cc2sc(C(=O)C[C@H](C)C(=O)O)cc2cc1OCCOc1ccc2sc(C(=O)CCC(=O)O)cc2c1 [Example 54, (S)-4-(5-(2-((2-(3-carboxypropanoyl)benzo[b]thiophen-5-yl)oxy)ethoxy)-6-methoxybenzo[b]thiophen-2-yl)-2-methyl-4-oxobutanoic acid]	804	3080	9	–
COc1cc2sc(C(=O)C[C@H](C)C(=O)O)cc2cc1OCCCOc1c(OC)cc2sc(C(=O)C[C@H](C)C(=O)O)cc2c1Cl [Example 155, (S)-4-(5-(3-((2-((S)-3-carboxybutanoyl)-4-chloro-6-methoxybenzo[b]thiophen-5-yl)oxy)propoxy)-6-methoxybenzo[b]thiophen-2-yl)-2-methyl-4-oxobutanoic acid]	3	5	–	129
COc1cc2sc(C(=O)C[C@H](C)C(=O)O)cc2c(F)c1CCCOc1c(OC)cc2sc(CC[C@H](C)C(=O)O)cc2c1F [Example 105, (S)-4-(5-(3-((2-((S)-3-carboxybutyl)-4-fluoro-6-methoxybenzo[b]thiophen-5-yl)oxy)propyl)-4-fluoro-6-methoxybenzo[b]thiophen-2-yl)-2-methyl-4-oxobutanoic acid]	39	311	130	–
COc1cc2sc(C(=O)C[C@H](C)C(=O)O)cc2cc1OCCCOc1c(OC)cc2sc(C(=O)[C@@H]3C[C@H]3C(=O)O)cc2c1F [Example 89, trans-2-(5-(3-((2-((S)-3-carboxybutanoyl)-6-methoxybenzo[b]thiophen-5-yl)oxy)propoxy)-4-fluoro-6-methoxybenzo[b]thiophene-2-carbonyl)cyclopropane carboxylic acid]	2	94	112	–
COc1cc2sc(C(=O)C[C@H](C)C(=O)O)cc2cc1CCCNc1cc2cc(C(=O)C[C@H](C)C(=O)O)sc2cc1OC [Example 61, (S)-4-(5-(3-((2-((S)-3-carboxybutanoyl)-6-methoxybenzo[b]thiophen-5-yl)amino)propyl)-6-methoxybenzo[b]thiophen-2-yl)-2-methyl-4-oxobutanoic acid]	33	327	62	–
COc1cc2sc(C(=O)C[C@H](C)C(=O)O)cc2nc1OCCOc1c(OC)cc2sc(C(=O)C[C@H](C)C(=O)O)cc2c1F (racemic) [Example 19, rac-(R)-4-(5-(2-((2-((R)-3-carboxybutanoyl)-4-fluoro-6-methoxybenzo[b]thiophen-5-yl)oxy)ethoxy)-6-methoxythieno[3,2-b]pyridin-2-yl)-2-methyl-4-oxobutanoic acid]	2	9	30	–
COc1cc2sc(C(=O)CCC(=O)O)cc2cc1CCCNc1cc2cc(C(=O)C[C@H](C)C(=O)O)sc2cc1OC [Example 177, (S)-4-(5-((3-(2-(3-carboxypropanoyl)-6-methoxybenzo[b]thiophen-5-yl)propyl)amino)-6-methoxybenzo[b]thiophen-2-yl)-2-methyl-4-oxobutanoic acid]	68	720	80	–
COc1cc2sc(CC[C@H](C)C(=O)O)cc2c(F)c1OCCCOc1c(OC)cc2sc(CC[C@H](C)C(=O)O)cc2c1F [Example 116, (2S,2′S)-4,4′-(5,5′-(propane-1,3-diylbis(oxy))bis(4-fluoro-6-methoxybenzo[b]thiophene-5,2-diyl))bis(2-methylbutanoic acid)]	623	4240	8	–
COc1cc2sc(C(=O)C[C@H](C)C(=O)O)cc2cc1OCCCOc1ccc2sc(C(=O)CCC(=O)O)cc2c1 [Example 55, (S)-4-(5-(3-((2-(3-carboxypropanoyl)benzo[b]thiophen-5-yl)oxy)propoxy)-6-methoxybenzo[b]thiophen-2-yl)-2-methyl-4-oxobutanoic acid]	14	48	53	–
CNc1cc2sc(C(=O)C[C@H](C)C(=O)O)cc2cc1OCCCOc1c(OC)cc2sc(C(=O)C[C@H](C)C(=O)O)cc2c1F [Example 157, (S)-4-(5-(3-((2-((S)-3-carboxybutanoyl)-4-fluoro-6-methoxybenzo[b]thiophen-5-yl)oxy)propoxy)-6-(methylamino)benzo[b]thiophen-2-yl)-2-methyl-4-oxobutanoic acid]	1	1	–	63
COc1cc2sc(C(=O)C[C@H](C)C(=O)O)cc2cc1OCCOc1ccc2cc(C(=O)CCC(=O)O)sc2c1 [Example 56, (S)-4-(5-(2-((2-(3-carboxypropanoyl)benzo[b]thiophen-6-yl)oxy)ethoxy)-6-methoxybenzo[b]thiophen-2-yl)-2-methyl-4-oxobutanoic acid]	1070	3130	30	–
COc1cc2sc(C(=O)C[C@H](C)C(=O)O)cc2c(F)c1OCCCOc1c(OC)cc2sc(C(=O)[C@@H]3C[C@H]3C(=O)O)cc2c1F [Example 86, trans-2-(5-(3-((2-((S)-3-carboxybutanoyl)-4-fluoro-6-methoxybenzo[b]thiophen-5-yl)oxy)propoxy)-4-fluoro-6-methoxybenzo[b]thiophene-2-carbonyl)cyclopropane carboxylic acid]	1	9	131	–
COc1cc2sc(C(=O)CCC(=O)O)cc2cc1CCCOc1nc2cc(C(=O)C[C@H](C)C(=O)O)sc2cc1OC [Example 3, (S)-4-(5-(3-(2-(3-carboxypropanoyl)-6-methoxybenzo[b]thiophen-5-yl)propoxy)-6-methoxythieno[3,2-b]pyridin-2-yl)-2-methyl-4-oxobutanoic acid]	114	273	151	–
